Where two headings read alike, the source gives them in different places.

Data on 32 compounds can be found in patent publication EP1420018A1, “Pyrido[1,2-a]benzimidazole derivatives useful in treating central nervous system disorders” (Ortho-McNeil Pharmaceutical, Inc., priority 1996, dated 1998).

The test system of assay [1] is metrazol-induced convulsions. Briefly: Suppression of Metrazol-Induced Convulsions in Adult Male Mice. In kind it is in vivo. Conditions: Mus musculus, po.
For assay [2], the target named is benzodiazepine site of the GABA-A receptor. Briefly: Benzodiazepine Receptor Binding Assay (inhibition of 3H-flunitrazepam binding). The following applies: read-out: GABAA Receptor Binding IC50.
Assay [3] concerns metrazol-induced convulsions. Briefly: Suppression of Metrazol-Induced Convulsions in Adult Male Mice. Type of assay: in vivo. The following applies: Mus musculus, ip. The protocol: Assay to Determine the Suppression of Metrazol-Induced Convulsions in Adult Male Mice
Male CD1 mice, were fasted at least 16 hours, were divided into equal groups and test compounds or vehicle were administered parenterally. Water was not withheld except during the period of observations. […] Metrazol was dissolved in 0.9% sodium chloride solution, and its dose volume was 10 ml/kg. Animals were housed individually for observation of clonic convulsions, tonic convulsions and death for a period of 30 min. […] The biological assay was considered to be valid if the effects of a known anticonvulsant (positive control) were detected, within the same experiment. Activity was reported as percent reduction of clonic convulsions from the vehicle group.

Assay [4] concerns Anxiety in the Adult Male Rat. The experiment in a line: Suppression of Anxiety in the Adult Male Rat (rat conflict test). In kind it is in vivo, rats. Conditions: Rattus norvegicus. The protocol:
Assay to Measure the Suppression of Anxiety in the Adult Male Rat
Male rats were deprived of water for 48 hours and were deprived of food for 24 hours prior to testing. After the first 24 hours of water deprivation, they were placed in the conflict chamber for a training period; wherein, they were allowed 200 unpunished licks from a bottle containing tap water. The experiment was run the next day. At the expected time of peak activity, the animals were placed in the chamber and allowed access to tap water. […] Their first lick initiates a 3-min test session. Subsequently, every 20th lick was punished by a 0.2-s shock delivered via the stainless-steel drinking-tube.
The Wilcoxon rank-sum test (Mann-Whitney U-test) was used to test for an increase (p<0.05, 1-tailed) in the median number of shocks in drug-treated groups, compared to a concurrently run vehicle-treated group. The biological assay is considered to be valid if the effects of a known anxiolytic (positive control) are detected, within the same experiment.

Where [5] appears, read: po, rat, po, read-out: Rat Conflict (MED, mg/kg) po.
Setting [6] is: ip, rat, ip, read-out: Rat Conflict (MED, mg/kg) ip.
The mark [7] stands for this setting: inhibition of 3H-flunitrazepam (ca. 3 nM) binding to membranes, 25°C, over 10,000 = not active.
Setting [8] is: po, minimum effective dose, increase in shocks tolerated, >10 = active dose not determined, read-out: Rat Conflict (MED, mg/kg) po.
Setting [9] is: block of clonic convulsions, male CD1 mice, >30 = active dose not determined.

In the case of `CCOCN1C2=C(C(=O)Nc3ccccc3F)C(=O)CCN2c2ccc(F)c(F)c21` [Compound 103], the values for the median effective dose (ED50) in assay [1] (mouse) and in assay [3] (mouse) were less than 3 mg/kg and less than 1 mg/kg, respectively. The IC50 (commonly the midpoint of a concentration-inhibition curve) in assay [2] was 0.55 nM. Further, the minimal effective dose in assay [4] (setting [5]) is 1 mg/kg.

On to `CCOCN1C2=C(C(=O)Nc3ccc(F)cc3F)C(=O)CCN2c2ccc(F)cc21` [Compound 123], for which the figures for the ED50 in assay [1] (mouse) and in assay [3] (mouse) were less than 3 mg/kg and less than 1 mg/kg, respectively. Besides, in assay [2], the IC50 is 1.19 nM. For the same compound, the results for the minimal effective dose in assay [4] (setting [6]) and in assay [4] (setting [5]) were no more than 0.1 mg/kg and 0.1 mg/kg, respectively.

Consider `COCCN1C2=C(C(=O)Nc3sccc3Cl)C(=O)CCN2c2ccc(F)cc21` [Compound 138], for which the ED50 (commonly the dose that gives a 50% effect, or the effect in half of the subjects) in assay [1] (mouse) is 30 mg/kg; in assay [3] (mouse), less than 1 mg/kg. Besides, the IC50 in assay [2] is 1.34 nM. Besides, in assay [4] (setting [5]), the minimal effective dose was greater than 10 mg/kg.

Regarding `CCOCN1C2=C(C(=O)Nc3ccc(C)s3)C(=O)CCN2c2ccc(F)cc21` [Compound 133], the IC50 in assay [2] was found to be 0.68 nM. The minimal effective dose in assay [4] (setting [5]) is greater than 3 mg/kg.

As for `CCOCN1C2=C(C(=O)Nc3ccc(OC)cc3F)C(=O)CCN2c2ccc(F)cc21` [Compound 97, 7-Fluoro-1,2-dihydro-5-ethoxymethyl-3-oxo-N-(2-fluoro-4-methoxyphenyl)pyrido[1,2-a]benzimidazole-4-carboxamide], the ED50 in assay [1] (mouse) is no more than 0.3 mg/kg. In addition, the concentration for half-maximal inhibition (IC50) in assay [2] is 0.41 nM. Also, the minimal effective dose in assay [4] (setting [6]) is no more than 0.1 mg/kg; in assay [4] (setting [5]), 0.03 mg/kg.

For `COCCN1C2=C(C(=O)Nc3c(F)cccc3F)C(=O)CCN2c2ccccc21` [Compound 151], the ED50 is roughly 2 mg/kg in assay [1] (mouse) and less than 1 mg/kg in assay [3] (mouse). Besides, the IC50 in assay [2] stood at 4.64 nM. Also, the minimal effective dose in assay [4] (setting [5]) came to 10 mg/kg.

Turning to `O=C1CCN2C(=C1C(=O)Nc1ccccc1F)N(CC1CCOC1)c1cc(F)ccc12` (centres unmarked) [Compound 174], the 50% effective dose (ED50) in assay [1] (mouse) was less than 3 mg/kg; in assay [3] (mouse), less than 1 mg/kg. For the same compound, the IC50 in assay [2] is 2.28 nM. The minimal effective dose in assay [4] (setting [5]) is 3 mg/kg.

With `CC(=O)OCCN1C2=C(C(=O)Nc3ccccc3F)C(=O)CCN2c2ccc(F)cc21` [Compound 119, 7-Fluoro-1,2-dihydro-5-(2-acetoxyethyl)-3-oxo-N-(2-fluorophenyl)pyrido[1,2-a]benzimidazole-4-carboxamide], the results for the ED50 in assay [1] (mouse) and in assay [3] (mouse) were no more than 3 mg/kg and less than 1 mg/kg, respectively. The minimal effective dose in assay [4] (setting [5]) was determined as 3 mg/kg.

With `COCCN1C2=C(C(=O)Nc3ccc(C)s3)C(=O)CCN2c2ccc(F)cc21` [Compound 143], the values for the ED50 in assay [1] (mouse) and in assay [3] (mouse) were 0.7 mg/kg and less than 1 mg/kg, respectively. In assay [2], the IC50 was 1.35 nM. In assay [4] (setting [5]), the minimal effective dose was less than 10 mg/kg.

For `O=C1CCN2C(=C1C(=O)Nc1ccccc1F)N(CCNS(=O)(=O)c1cccs1)c1cc(F)ccc12` [Compound 47], the ED50 came to 30 mg/kg in assay [1] (mouse) and 1 mg/kg in assay [3] (mouse). Besides, the IC50 in assay [2] amounted to 13.7 nM. For the same compound, in assay [4] (setting [6]), the minimal effective dose was greater than 10 mg/kg.

`COCCN1C2=C(C(=O)NC3CC3)C(=O)CCN2c2ccc(F)cc21` [Compound 118]: the ED50 in assay [1] (mouse) was roughly 3 mg/kg; in assay [3] (mouse), less than 1 mg/kg. In assay [2], the IC50 came to 3.68 nM. Also, the minimal effective dose in assay [4] (setting [5]) was 10 mg/kg.

Turning to `CCOCN1C2=C(C(=O)Nc3ccc(F)cc3F)C(=O)CCN2c2cc(F)cc(F)c21` [Compound 113], in assay [2], the concentration for half-maximal inhibition (IC50) turned out to be 44.3 nM. The minimal effective dose in assay [4] (setting [5]) is greater than 10 mg/kg.

Turning to `O=C1CCN2C(=C1C(=O)Nc1ccccc1F)N(CCO)c1c(O)cccc12` [Compound 94, 6-Hydroxy-1,2-dihydro-5-(2-hydroxyethyl)-3-oxo-N-(2-fluorophenyl)pyrido[1,2-a]benzimidazole-4-carboxamide], the IC50 in assay [2] was found to be 2.38 nM. In addition, the minimal effective dose in assay [4] (setting [5]) is greater than 10 mg/kg.

Take `O=C1CCN2C(=C1C(=O)Nc1c(F)cccc1F)N(CCN(Cc1ccccc1)Cc1ccccc1)c1cc(F)ccc12` [Compound 63, 7-Fluoro-1,2-dihydro-5-[N,N-di(benzyl)-2-aminoethyl]-3-oxo-N-(2,6-difluorophenyl)pyrido[1,2-a]benzimidazole-4-carboxamide]: in assay [2], the half-maximal inhibitory concentration (IC50) came to 15.5 nM. In addition, the minimal effective dose in assay [4] (setting [6]) was greater than 10 mg/kg.

In the case of `O=C(CN1C2=C(C(=O)Nc3ccccc3F)C(=O)CCN2c2ccc(F)cc21)NCCc1c[nH]cn1` [Compound 32], the IC50 in assay [2] (setting [7]) is 3.56 nM. In addition, the minimal effective dose in assay [4] (setting [8]) is greater than 3 mg/kg.

As to `COCCN1C2=C(C(=O)Nc3ccccc3F)C(=O)CCN2c2c(OCc3ccccc3)cccc21` [Compound 109], the IC50 in assay [2] is greater than 1000 nM. Moreover, in assay [4] (setting [5]), the minimal effective dose was greater than 10 mg/kg.

As for `COCCN1C2=C(C(=O)Nc3ccccc3F)C(=O)CCN2c2cccc(OC)c21` [Compound 96], the half-maximal inhibitory concentration (IC50) in assay [2] came out at 1.8 nM. Also, in assay [4] (setting [5]), the minimal effective dose is greater than 10 mg/kg.

For `COc1cccc2c1N(CCN(C)C)C1=C(C(=O)Nc3nccs3)C(=O)CCN12` [Compound 34], the IC50 in assay [2] (setting [7]) turned out to be 1000 nM. In assay [4] (setting [8]), the minimal effective dose was greater than 3 mg/kg.

`O=C1CCN2C(=C1C(=O)Nc1ccccc1F)N(CC(O)CO)c1cc(F)ccc12` (centres unmarked) [Compound 162, 7-Fluoro-1,2-dihydro-5-[2,3-dihydroxypropyl]-3-oxo-N-(2-fluorophenyl)pyrido[1,2-a]benzimidazole-4-carboxamide]: the ED50 in assay [1] (mouse) was no more than 30 mg/kg; in assay [3] (mouse), 3 mg/kg. In addition, the minimal effective dose in assay [4] (setting [6]) was no more than 10 mg/kg; in assay [4] (setting [5]), greater than 10 mg/kg.

In turn, `CCOCN1C2=C(C(=O)Nc3ccc(O)cc3F)C(=O)CCN2c2ccc(F)cc21` [Compound 99, 7-Fluoro-1,2-dihydro-5·ethoxymethyl·3-oxo-N-(2-fluoro-4-hydroxyphenyl)pyrido[1,2-a]benzimidazale-4-carboxamide] registered an ED50 in assay [1] (mouse) of 0.3 to 3 mg/kg. Besides, in assay [2], the IC50 was found to be 1.38 nM. In addition, the minimal effective dose in assay [4] (setting [6]) is no more than 1 mg/kg; in assay [4] (setting [5]), 1 to 3 mg/kg.

As for `COCCN1C2=C(C(=O)Nc3ncc(C)s3)C(=O)CCN2c2ccccc21` [Compound 98], the IC50 in assay [2] stood at 11 nM. Further, the minimal effective dose in assay [4] (setting [5]) stood at 3 mg/kg.

`Cc1ccc(NC(=O)C2=C3N(CCNS(=O)(=O)C(F)(F)F)c4cc(F)ccc4N3CCC2=O)s1` [Compound 35]: the IC50 in assay [2] (setting [7]) is 46.9 nM. Further, the minimal effective dose in assay [4] (setting [8]) was greater than 10 mg/kg.

In the case of `CCOCN1C2=C(C(=O)Nc3cc4ccccc4s3)C(=O)CCN2c2ccc(F)cc21` [Compound 115], the figures for the 50% effective dose (ED50) in assay [1] (mouse) and in assay [3] (mouse) were greater than 30 mg/kg and greater than 1 mg/kg, respectively. Also, in assay [2], the 50% inhibitory concentration (IC50) amounted to 53.5 nM.

Regarding `CCOCCN1C2=C(C(=O)Nc3ccc(Cl)s3)C(=O)CCN2c2ccc(F)cc21` [Compound 132], the half-maximal inhibitory concentration (IC50) in assay [2] is 3.13 nM. The minimal effective dose in assay [4] (setting [5]) is greater than 3 mg/kg.

As to `CCOCN1C2=C(C(=O)Nc3ccccc3F)C(=O)CCN2c2cc(F)cc(F)c21` [Compound 112], in assay [2], the IC50 is 13.3 nM. In addition, the minimal effective dose in assay [4] (setting [5]) was greater than 10 mg/kg.

For `CCOCN1C2=C(C(=O)Nc3ccc(OCCOC)cc3F)C(=O)CCN2c2ccc(F)cc21` [Compound 93], the IC50 in assay [2] came out at 1.8 nM. Further, the minimal effective dose in assay [4] (setting [5]) was no more than 0.3 mg/kg.

For the compound `CCOCN1C2=C(C(=O)Nc3ccc(OC(C)C)cc3F)C(=O)CCN2c2ccc(F)cc21` [Compound 95], the IC50 in assay [2] is 2.5 nM. Also, the minimal effective dose in assay [4] (setting [5]) was no more than 3 mg/kg.

As for `CCOCCN1C2=C(C(=O)Nc3cc4ccccc4s3)C(=O)CCN2c2ccc(F)cc21` [Compound 117], the ED50 is greater than 30 mg/kg in assay [1] (mouse) and no more than 1 mg/kg in assay [3] (mouse). Besides, the IC50 in assay [2] was determined as 106 nM.

In the case of `C[S+]([O-])CCN1C2=C(C(=O)Nc3ccccc3F)C(=O)CCN2c2ccc(F)cc21` (centres unmarked) [Compound 183, 7-Fluoro-1,2-dihydro-5-[2-(methylsulfoxy)ethyl]-3-oxo-N-(2-fluorophenyl)pyrido[1,2-a]benzimidazole-4-carboxamide], the ED50 in assay [1] (setting [9]) was roughly 10 mg/kg; in assay [3] (setting [9]), greater than 1 mg/kg. Further, the minimal effective dose in assay [4] (setting [8]) stood at 10 mg/kg.

On to `CCOCN1C2=C(C(=O)Nc3ccc(OCc4ccccc4)cc3F)C(=O)CCN2c2ccc(F)cc21` [Compound 92], for which the IC50 in assay [2] came to 3.33 nM. Besides, the minimal effective dose in assay [4] (setting [5]) is greater than 3 mg/kg.

On to `CN=C(NCCN1C2=C(C(=O)Nc3ccccc3F)C(=O)CCN2c2ccc(F)cc21)N1CCCC1` [Compound 33], for which, in assay [2] (setting [7]), the IC50 was found to be 54 nM. For the same compound, the minimal effective dose in assay [4] (setting [8]) was greater than 3 mg/kg.

Turning to `O=C(CN1C2=C(C(=O)Nc3c(F)cccc3F)C(=O)CCN2c2ccc(F)cc21)Nc1ccccc1F` [Compound 60], the values for the 50% effective dose (ED50) in assay [1] (mouse) and in assay [3] (mouse) were greater than 30 mg/kg and 10 mg/kg, respectively. Moreover, the IC50 in assay [2] turned out to be 21.4 nM.
